Data: PMC4640567, “Cinnamic Acid Bornyl Ester Derivatives from Valeriana wallichii Exhibit Antileishmanial In Vivo Activity in Leishmania major-Infected BALB/c Mice” (PLoS ONE, 2015)

What was measured:
[1] = AlamarBlue cytotoxicity, HepG2 cells; type: cell-based; details: human, read-out: Cytotoxicity (μM) HEP G2
Protocol: BMDM were generated in complete RPMI medium as described previously. On day six, the cytotoxicity against 2 × 10^5 cells/ml was tested at increasing concentrations of compounds 1 and 2 for 48 h. Human embryonic kidney HEK 293 T cells (ATCC, Wesel, Germany) were cultured in Dulbecco´s Modified Eagle Medium (DMEM) (Life Technologies, Darmstadt, Germany), with 10% FCS (PAA Laboratories, Germany). According to the standard operating procedures (SOP) within the Collaborative Research Center 630 (SFB 630) 2 × 10^4 HEK 293 T cells/ml were tested at increasing concentrations of compounds 1 and 2 for 48 h. Human liver carcinoma HepG2 cells (ATCC) were cultured in RPMI medium (Gibco) with 10% FCS. 1 × 10^5 cells/ml HepG2 were tested at increasing concentrations of 1 and 2 for 72 h according to the SOPs. The AlamarBlue assay was performed as described above for L. major parasites.

[2] = tested on: L. donovani promastigotes; test: MTT assay, L. donovani (AG83) promastigotes; type: cell-based; details: Leishmania donovani, tested at 10, 50, 100 μM, read-out: Cytotoxicity (μM) L. donovani promastigotes (IC50)
Protocol: L. donovani promastigotes (strain: MHOM/IN/1983/AG83) were obtained from the Indian Institute of Chemical Biology, Kolkata, India. Promastigotes were cultured in Schneider’s insect medium (Sigma-Aldrich Co., St. Louis, USA) as described elsewhere.
Antiparasitic activities of compounds 1 and 2 dissolved in dimethyl sulfoxide (DMSO, E. Merck, India) against L. donovani (AG83) promastigotes were determined by a quantitative colorimetric assay using the 3-(4, 5- dimethylthiazol-2-yl)-2, 5-diphenyl tetrazolium bromide (MTT) (Sisco Research Laboratory, Mumbai, India) test as described elsewhere. The compounds were tested at concentrations of 10 μM, 50 μM, and 100 μM and IC50 values (concentration of compound, which inhibited at least 50% cell metabolic activity) for each compound were determined from respective dose–response curves using Origin 5.0 software (Microcal Software, Inc., Northampton, MA, USA).

[3] = tested on: L. major promastigotes; test: MitoTracker Red CMXRos staining, flow cytometry; type: cell-based, Leishmania major; details: 100 μM
Protocol: L. major promastigotes were harvested from blood-agar cultures and washed twice with DPBS (900 × g for 5 min at RT). 2 × 10^6 promastigotes were dissolved in 180 μl RPMI complete medium and seeded in a 96 well plate. Parasites were incubated with 20 μL of compound 1 (final concentration: 100 μM), compound 2 (final concentration: 100 μM) and with 20 μL of DMSO, respectively, for 30 min, 45 min, 60 min, or 120 min at 27°C in a 5% CO2. After incubation 2 μl of MitoTracker Red CMXRos (final concentration: […]) (Life Technologies, Darmstadt, Germany) was added for 15 min at 27°C. Samples were directly acquired using a MACSQuant Analyzer (Miltenyi Biotech, Bergisch Gladbach, Germany) and MitoTracker-positive parasites were analyzed using MACS Quant Analyzing software.

[4] = tested on: L. major; test: In vivo antileishmanial activity in L. major-infected BALB/c mice
Protocol: Female BALB/c mice (11 per group; three groups in total) were infected with 2 × 10^5 L. major promastigotes in 30 μL phosphate-buffered saline (PBS) into the right hind footpad under isoflurane inhalation anaesthesia using the UniVet Porta system (Groppler, Deggendorf, Germany). The clinical manifestation of L. major infection was monitored twice a week by determination of the body weight (g) and footpad size (mm) of the infected (iFP) and the non-infected footpad (niFP) serving as negative control. The footpad swelling describes the difference in mm between the iFP and niFP of individual mice. Three weeks post infection (p.i.) the mice were randomly divided into three groups of 11 for different treatment regimens. On day 21, 25, and 28 p.i. the respective groups were either left untreated, treated intraperitoneally (i.p.) with 100 μl of solvent (infected, 50% DMSO/PBS) or 100 μl 50 mg/kg/day of compound 2 in 50% DMSO/PBS. This high dose of compound 2 was chosen to identify its antileishmanial in vivo efficacy in L. major-infected BALB/c mice. The close monitoring of body weight and footpad swelling was continued until the end of experiment. On day 35 p.i. mice were sacrificed by CO2 inhalation and single cell suspensions from the iFP, draining popliteal lymph nodes (pLN) and spleens were obtained. The parasite burden was determined by limiting dilution assays as described previously. It was not necessary to apply any analgesics or anaesthetics during the animal trials.

[5] = 50 mg/kg/day i.p. days 21, 25, 28, day 35 p.i.

SMILES | IC50 at 72 h [1] [µM] | IC50 [2] [µM] | MitoTracker-positive cells, percentage of DMSO control (100%) ([3]; 60 min) [%] | MitoTracker-positive cells, percentage of DMSO control (100%) ([3]; 120 min) [%] | Side effects in vivo ([4]; 50 mg/kg/day i.p. days 21, 25, 28) | Parasite burden in the spleen (LDA) [4, 5] | Reduction of parasite burden within the infected footpads (LDA) [4, 5] | Reduction of parasite burden within the popliteal lymph nodes (LDA) [4, 5] | Body weight of infected mice ([4]; 50 mg/kg/day i.p. on days 21, 25, 28 p.i., during the treatment regimen) | Footpad swelling (difference between infected and non-infected footpad) ([4]; 50 mg/kg/day i.p. on days 21, 25, 28 p.i., vs untreated or solvent control-treated mice)
CC1(C)C2CCC1(C)C(OC(=O)C=Cc1ccccc1)C2 (single isomer, unassigned; (-)) [Compound 1, (-)-Bornyl cinnamate] | > 100 | 15.6 | 75 | 63 |  |  |  |  |  | 
CC1(C)C2CCC1(C)C(OC(=O)CCc1ccccc1)C2 (single isomer, unassigned; (-)) [Compound 2, (-)-bornyl 3-phenylpropionate] | > 100 | > 100 | 75.2 | 60.2 | did not have any strong side effects | only numerically reduced | ~ 100 fold | ~ 10.000 fold | not affected | reduced footpad swelling
